Assay results published in patent publication EP0846119B1, “THIENOPYRIMIDINE DERIVATIVES, THEIR PRODUCTION AND USE AS ENDOTHELIN ANTAGONISTS” (Takeda Chemical Industries, Ltd., priority 1995, dated 1997).

What was measured:
[1] = target: T1, human endothelin-A (ETA) receptors (Homo sapiens, UniProt P25101); assay: Binding Test to ETA receptor expressed in an insect cell Sf9 ([125I]endothelin-1 displacement); conditions: Sf9 membrane fractions; [125I]endothelin-1; 25°C, 60 minutes; concentration causing PMB=50%; read-out: IC50 value: µM Human endotherin-A receptor
T1 construct: made in house; host or cells: Sf9 insect cells (membrane fractions)
T1 sequence (P25101 21-427): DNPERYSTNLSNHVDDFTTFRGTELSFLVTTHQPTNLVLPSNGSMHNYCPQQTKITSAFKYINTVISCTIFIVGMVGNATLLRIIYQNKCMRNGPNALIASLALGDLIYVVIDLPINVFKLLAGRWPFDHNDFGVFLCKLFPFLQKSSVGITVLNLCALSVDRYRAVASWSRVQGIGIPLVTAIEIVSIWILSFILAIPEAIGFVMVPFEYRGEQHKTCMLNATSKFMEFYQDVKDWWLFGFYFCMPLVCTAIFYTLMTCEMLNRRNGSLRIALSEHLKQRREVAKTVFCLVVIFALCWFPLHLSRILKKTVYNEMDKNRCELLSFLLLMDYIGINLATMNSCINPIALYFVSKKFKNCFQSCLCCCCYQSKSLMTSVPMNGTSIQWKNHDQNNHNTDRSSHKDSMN
Procedure: Binding Test to ETA receptor expressed in an insect cell Sf9:
(§1) Endothelin (ET) receptors were prepared by diluting fractions of insect cell (Sf9) membrane having human endothelin-A (ETA) receptors expressed, with an assay buffer {20 mM Tris-HCl, 2 mM EGTA (ethyleneglycol bls(2-aminoethylether) tetra acetic acid), 5 mM magnesium acetate, 0.1% BSA (bovine serum albumin), 0.03% NaN3, 0.5 mM PMSF (phenyl methyl sulfonyl fluoride), 20 µg/ml leupeptin, 4 µg/ml E-64 (products of the Peptide Institute, Japan), 1 µg/ml pepstatin, (pH 7.2)} respectively in a concentration of 1.4 µg/ml in the former case and 0.7 µg/ml in the latte case.
To 100 µl of each portion was added 5 nM[^125I] endothelin-1 (2 µl). A dimethylsulfoxide solution (3 µl) of the test compound was added thereto and incubated at 25°C for 60 minutes.
And, to determine the maximum binding amount (B0) and non-specific binding amount (NSB), lots to which a dimethyl sulfoxide solution (3 µl) or a dimethyl sulfoxide solution (3 µl) containing endothelin-1 (10^-3M) had been added, were also incubated.
These lots were supplemented with 0.05% CHAPS(3-[(3-chloroamidopropyl)dimethylammonio]-1-propanesulfonate)-assay buffer (1.5 ml), subjected to filtration through a glass fiber filter GF/F (trade name; product of Whatman Ltd. (England)), and then washed with the same buffer (1.5 ml)).
(§2) Radioactivity on the filter was counted in a gamma-counter to determine the Percent Maximum Binding (PMB) in accordance with the aforesaid calculation formula. The concentration causing PMB=50% was determined as IC50 value.

[2] = target: T2, human endothelin-B (ETB) receptors (Homo sapiens, UniProt P24530); assay: Binding Test to ETB receptor expressed in an insect cell Sf9 ([125I]endothelin-1 displacement); conditions: Sf9 membrane fractions; [125I]endothelin-1; 25°C, 60 minutes; concentration causing PMB=50%; read-out: IC50 value: µM Human endotherin-B receptor
T2 construct: made in house; host or cells: Sf9 insect cells (membrane fractions)
T2 sequence (P24530 27-442): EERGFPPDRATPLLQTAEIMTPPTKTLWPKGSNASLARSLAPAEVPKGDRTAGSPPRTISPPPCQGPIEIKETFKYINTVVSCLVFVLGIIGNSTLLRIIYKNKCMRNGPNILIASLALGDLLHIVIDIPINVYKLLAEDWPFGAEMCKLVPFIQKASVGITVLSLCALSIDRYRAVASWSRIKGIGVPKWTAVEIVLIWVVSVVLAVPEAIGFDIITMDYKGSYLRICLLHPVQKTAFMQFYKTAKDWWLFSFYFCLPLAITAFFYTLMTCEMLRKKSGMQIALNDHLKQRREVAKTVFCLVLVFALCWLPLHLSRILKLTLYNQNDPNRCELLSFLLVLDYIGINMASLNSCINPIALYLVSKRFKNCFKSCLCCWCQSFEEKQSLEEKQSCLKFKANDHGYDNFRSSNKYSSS
Procedure: Binding Test to ETB receptor expressed in an insect cell Sf9:
as §1, with “endothelin-B (ETB)” for “endothelin-A (ETA)”, “{200” for “{20”, “(ethylenegiycol bis(2-aminoethylether)” for “(ethyleneglycol bls(2-aminoethylether)”, “PMSF(phenyl” for “PMSF (phenyl”, “Institute),” for “Institute, Japan),”, “latter” for “latte”
To 100 µl of each portion was added 5 nM[^125I] endothelin-1 (2 µl). A dimethylsulfoxide solution (3 µl) of the sample was added thereto and incubated at 25°C fpr 60 minutes.
And, to determine the maximum binding amount (B0) and non-specific binding amount (NSB), lots to which a dimethyl sulfoxide solution (3 µl) or a dimethyl sulfoxide solution (3 µl) containing endothelin-1 (10^-5M) had been added, were also incubated.
These lots were supplemented with 0.05% CHAPS(3-[(3-chloroamidopropyl)dimethylammonio]-1-propanesulfonate)-assay buffer (1.5 ml), subjected to filtration through a glass fiber filter GF/F (trade name; product of Whatman Ltd. (England)), and then washed with the same buffer (1.5 ml).
as §2

Row | Structure (SMILES) | IC50 [1] [µM] | IC50 [2] [µM]
1 | CCCOc1ccc(-c2sc3c(c2CNS(=O)(=O)CC)c(=O)n(CC(=O)O)c(=O)n3Cc2ccccc2SC)cc1 [11(9), 2,4(1H,3H)-Dioxo-6-(4-propoxyphenyl)-1-(2-methylthiobenzyl)-5-(ethanesulfonamidomethyl)-thieno[2,3-d]pyrimidine-3-acetic acid] | 0.015 | 0.11
2 | CCCOc1ccc(-c2sc3c(c2CNS(C)(=O)=O)c(=O)n(CC(=O)O)c(=O)n3Cc2ccccc2SC)cc1 [11(7), 2,4(1H,3H)-Dioxo-6-(4-propoxyphenyl)-1-(2-methylthiobenzyl)-5-(methanesulfonamidomethyl)-thieno[2,3-d]pyrimidine-3-acetic acid] | 0.018 | 0.22
3 | CCCOc1ccc(-c2sc3c(c2CNS(=O)(=O)C(C)C)c(=O)n(CC(=O)O)c(=O)n3Cc2ccccc2SC)cc1 [11(15), 2,4(1H,3H)-Dioxo-6-(4-propoxyphenyl)-1-(2-methylthiobenzyl)-5-(isopropanesulfonamidomethyl)-thieno[2,3-d]pyrimidine-3-acetic acid] | 0.011 | 0.094
4 | COCOc1ccc(-c2sc3c(c2CNS(=O)(=O)C(C)C)c(=O)n(CC(=O)O)c(=O)n3Cc2ccccc2SC)cc1 [11(11), 2,4(1H,3H)-Dioxo-6-(4-methoxymethoxyphenyl)-1-(2-methylthiobenzyl)-5-(isopropanesulfonamidomethyl)thieno[2,3-d]pyrimidine-3-acetic acid] | 0.0066 | 0.09
5 | CCCS(=O)(=O)NCc1c(-c2ccc(OCOC)cc2)sc2c1c(=O)n(CC(=O)O)c(=O)n2Cc1ccccc1SC [11(17)] | 0.022 | 0.047
